Data: patent US5624956A, “Urea derivatives useful as platelet aggregation inhibitors” (The Monsanto Company, priority 1995, dated 1997)

The compounds below were run on platelet aggregation (dog platelet-rich plasma) (assay: In-vitro platelet aggregation in PRP (ADP-induced, dog)). Conditions: Canis lupus familiaris, ADP 50 um final concentration, at 10^-5 M, read-out: Dog PRP % Inh.
Format: cell-based
Procedure: IN-VITRO PLATELET AGGREGATION IN PRP
Healthy male or female dogs were fasted for 8 hours prior to drawing blood; then 30 ml whole blood was collected using a butterfly needle and 30 cc plastic syringe with 3 ml of 0.129M buffered sodium citrate (3.8%). The syringe was rotated carefully as blood was drawn to mix the citrate. Platelet-rich plasma (PRP) was prepared by centrifugation at 975×g for 3.17 minutes at room temperature allowing the centrifuge to coast to a stop without braking. The PRP was removed from the blood with a plastic pipette and placed in a plastic capped, 50 mL Corning conical sterile centrifuge tube which was held at room temperature. Platelet poor plasma (PPP) was prepared by centrifuging the remaining blood at 2000×g for 15 minutes at room temperature allowing the centrifuge to coast to a stop without braking. The PRP was adjusted with PPP to a count of 2-3×10^8 platelets per mL. 400 uL of the PRP preparation and 50 uL of the compounds solution to be tested or saline were preincubated for […] at 37° C. in a […].). 50 uL of adenosine 5' diphosphate (ADP) (50 um final concentration) was added to the cuvettes and the aggregation was monitored for 1 minute. All compounds are tested in duplicate. Results are calculated as follows: Percent of control=[(maximal OD minus initial OD of compound) divided by (maximal OD minus initial OD of control saline)]×100. The % inhibition=100-(percent of control).
The compounds tested and their median inhibitory concentrations (IC50) are recorded in Table I. IC50 's (dosage at which 50% of platelet aggregation is inhibited) were calculated by linear regression of the dose response curve.
`CN=C(NCCC(=O)NCCC(=O)O)Nc1ccc(C(=N)N)cc1` [Example 6, β-[[3-[[[4-(aminoiminomethyl)phenyl]amino]N-methylcarbonylimide]aminopropanoyl]amino]propanoic acid] showed an inhibition at 10 µM of 5%. `CC(C)[C@H](NC(=O)Nc1ccc(C(=N)N)cc1)C(=O)NC(CC(=O)O)c1cccnc1` (single isomer, unassigned) [10 (isomer 1)] showed an inhibition at 10 µM of 9%.

Same assay, conditions: Canis lupus familiaris, ADP 50 um final concentration, preincubation at 37° C., aggregation monitored for 1 minute
`C[C@H](CNC(=O)Nc1ccc(C(=N)N)cc1)C(=O)NC(CC(=O)O)c1ccc2c(c1)OCO2` (single isomer, unassigned) [14 (isomer 1)] showed an IC50 of 2000 nM. `N=C(N)c1ccc(NC(=S)NCCC(=O)NCCC(=O)O)cc1` [Example 8, β-[[3-[[[4(aminoiminomethyl)phenyl]amino]-thiocarbonyl]aminopropanoyl]amino]propanoic acid] gave an IC50 of 4900 nM. `N=C(N)c1ccc(NC(=O)NC(CC(=O)NCCC(=O)O)c2cccnc2)cc1` (stereo not drawn) [Example 12, β-[[3-[[[[4-(aminoiminomethyl)phenyl]amino]-carbonyl]amino](3-pyridine)propanoyl]amino]-propanoic acid] gave an IC50 of 6000 nM. `N=C(N)c1ccc(NC(=O)NCC(=O)NC(CC(=O)O)c2cccnc2)cc1` (stereo not shown) [Example 4] was tested, and the IC50 was 260 nM. Compound `N=C(N)c1ccc(NC(=O)NCCC(=O)NC(CC(=O)O)c2cccnc2)cc1` (stereo not shown) [Example 2] has an IC50 of 330 nM.
